Source: patent US9617267B2, “Compounds and methods for kinase modulation, and indications therefor” (Plexxikon Inc., priority 2009, dated 2017)
pIC50: −log10 of the molar value. Where two headings read alike, the source gives them in different places.

Tests used:
CYP3A4(BFC) = CYP3A4(BFC) (Homo sapiens (Human), UniProt P08684); assay: CYP enzyme inhibition, fluorescent substrate BFC
How it was run: (§1)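 Human CYP activity was followed by the fluorescence of the metabolized product of a known substrate, which falls as metabolism is inhibited. Compounds from 100 mM DMSO stocks were serially diluted 1:1 over 10 points in co-factor mix and preincubated 10 min at 37 °C. IC50 was fitted from signal versus concentration.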

B-Raf [1] = target: B-Raf (Homo sapiens (Human), UniProt P15056); assay: B-Raf kinase activity biochemical assay (AlphaScreen, biotin-MEK1 phosphorylation); details: B-Raf
How it was run: (§2)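 Biotin-MEK1 phosphorylation measured after 45 min kinase reaction at RT with 100 μM ATP final; compounds tested at 8 points from 0.1 mM DMSO stock.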

B-Raf [2] = assay: as above; details: for Biochemical activity ratio B/V600E: ratio of IC50 B-Raf / B-Raf V600E; for Biochemical activity ratio B/C: ratio of IC50 B-Raf / c-Raf-1
How it was run: as §2

CYP2C9 = CYP2C9 (Homo sapiens (Human), UniProt P11712); assay: CYP enzyme inhibition, fluorescent substrate (MFC); details: read-out: Cyp IC50 2C9; CYP2C9, substrate MFC
How it was run: as §1

CYP1A2 = CYP1A2 (Homo sapiens (Human), UniProt P05177); assay: CYP enzyme inhibition, fluorescent substrate (CEC)
How it was run: (§3)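 Ten-point 1:1 compound dilutions in NADPH-regenerating cofactor mix, pre-incubated 10 min at 37 °C before enzyme/substrate addition: CYP1A2 0.5 pmol with 5 μM CEC, 15 min, 409 ex/460 em; CYP2D6 1.5 pmol with 1.5 μM AMMC, 30 min, 409 ex/530 em. IC50 from fluorescent product vs concentration.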

CYP2D6 = CYP2D6 (Homo sapiens (Human), UniProt P10635); assay: CYP enzyme inhibition, fluorescent substrate (AMMC); format: in vitro ADME; details: read-out: Cyp IC50 2D6
How it was run: as §3

CYP2C19 = CYP2C19 (Homo sapiens (Human), UniProt P33261); assay: CYP enzyme inhibition, fluorescent substrate (CEC)
How it was run: as §1

[3] = Relative solubility by turbidity threshold concentration in aqueous buffers (pH 1.5, 4.5, 6.8, 7.4); format: physicochemical; details: for turbidity threshold (L, M, H) 1.4: pH 1.4 [sic] (method: SGF pH 1.5); for turbidity threshold (L, M, H) 4.5: pH 4.5 (SIF); for turbidity threshold (L, M, H) 6.8: pH 6.8 (SIF); for turbidity threshold (L, M, H) 7.4: pH 7.4 (HEPES)
How it was run: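 Solubility class (high >250 μM, moderate 31.3–250 μM, low <31.3 μM) comes from the concentration where absorbance reaches a 0.01 threshold, averaged across 490/535/650 nm. Samples were compound dilutions from DMSO stock, 1 μL into 99 μL buffer at pH 1.5, 4.5, 6.8 or 7.4.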

c-Raf-1 = c-Raf-1 (Homo sapiens, UniProt P04049); assay: c-Raf-1 kinase activity biochemical assay (AlphaScreen, biotin-MEK1 phosphorylation)
How it was run: as §2

CYP3A4(BQ) = CYP3A4(BQ) (Homo sapiens (Human), UniProt P08684); assay: CYP enzyme inhibition, fluorescent substrate BQ; details: read-out: Cyp IC50 3A4(BQ); CYP3A4, substrate BQ
How it was run: as §1

B-Raf V600E = B-Raf V600E (Homo sapiens (Human), UniProt P15056, V600E); assay: B-Raf V600E kinase activity biochemical assay (AlphaScreen, biotin-MEK1 phosphorylation); details: for IC50: B-Raf V600E; for Biochemical activity ratio V600E/C: ratio of IC50 B-Raf V600E / c-Raf-1
How it was run: as §2

[4] = read-out: Cyp IC50 3A4(BFC), CYP3A4, substrate BFC
[5] = read-out: Cyp IC50 1A2, CYP1A2, substrate CEC
[6] = read-out: Cyp IC50 2C19, CYP2C19, substrate CEC

Chain of CYP2D6 (P10635 whole entry): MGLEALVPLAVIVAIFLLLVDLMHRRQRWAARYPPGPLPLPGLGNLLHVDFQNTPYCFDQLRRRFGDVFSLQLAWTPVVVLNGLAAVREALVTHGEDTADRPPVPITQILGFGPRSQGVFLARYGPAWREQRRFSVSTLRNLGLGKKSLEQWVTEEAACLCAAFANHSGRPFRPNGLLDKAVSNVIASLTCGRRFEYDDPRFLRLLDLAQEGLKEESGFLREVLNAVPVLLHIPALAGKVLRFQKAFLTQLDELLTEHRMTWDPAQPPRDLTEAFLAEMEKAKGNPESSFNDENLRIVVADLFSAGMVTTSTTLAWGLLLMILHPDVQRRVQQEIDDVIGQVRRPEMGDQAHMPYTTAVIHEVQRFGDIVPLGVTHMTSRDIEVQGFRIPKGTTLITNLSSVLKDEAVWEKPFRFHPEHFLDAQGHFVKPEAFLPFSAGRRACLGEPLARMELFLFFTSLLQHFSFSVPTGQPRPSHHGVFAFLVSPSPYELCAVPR
Chain of CYP1A2 (P05177 whole entry): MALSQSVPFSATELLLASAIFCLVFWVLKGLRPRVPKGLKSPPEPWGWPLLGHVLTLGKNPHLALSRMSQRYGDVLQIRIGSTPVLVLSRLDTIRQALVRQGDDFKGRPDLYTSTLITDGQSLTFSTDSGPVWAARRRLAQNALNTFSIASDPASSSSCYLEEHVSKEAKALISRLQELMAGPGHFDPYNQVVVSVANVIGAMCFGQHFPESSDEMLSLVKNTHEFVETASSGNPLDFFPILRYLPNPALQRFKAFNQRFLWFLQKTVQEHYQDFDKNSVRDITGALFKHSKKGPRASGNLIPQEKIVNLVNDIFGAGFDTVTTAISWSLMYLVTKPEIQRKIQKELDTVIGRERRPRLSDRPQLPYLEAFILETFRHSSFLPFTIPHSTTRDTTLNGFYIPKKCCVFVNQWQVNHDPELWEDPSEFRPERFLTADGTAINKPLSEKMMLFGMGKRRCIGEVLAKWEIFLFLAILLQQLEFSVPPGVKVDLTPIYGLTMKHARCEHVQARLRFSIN
Chain of c-Raf-1 (P04049 whole entry, looked up): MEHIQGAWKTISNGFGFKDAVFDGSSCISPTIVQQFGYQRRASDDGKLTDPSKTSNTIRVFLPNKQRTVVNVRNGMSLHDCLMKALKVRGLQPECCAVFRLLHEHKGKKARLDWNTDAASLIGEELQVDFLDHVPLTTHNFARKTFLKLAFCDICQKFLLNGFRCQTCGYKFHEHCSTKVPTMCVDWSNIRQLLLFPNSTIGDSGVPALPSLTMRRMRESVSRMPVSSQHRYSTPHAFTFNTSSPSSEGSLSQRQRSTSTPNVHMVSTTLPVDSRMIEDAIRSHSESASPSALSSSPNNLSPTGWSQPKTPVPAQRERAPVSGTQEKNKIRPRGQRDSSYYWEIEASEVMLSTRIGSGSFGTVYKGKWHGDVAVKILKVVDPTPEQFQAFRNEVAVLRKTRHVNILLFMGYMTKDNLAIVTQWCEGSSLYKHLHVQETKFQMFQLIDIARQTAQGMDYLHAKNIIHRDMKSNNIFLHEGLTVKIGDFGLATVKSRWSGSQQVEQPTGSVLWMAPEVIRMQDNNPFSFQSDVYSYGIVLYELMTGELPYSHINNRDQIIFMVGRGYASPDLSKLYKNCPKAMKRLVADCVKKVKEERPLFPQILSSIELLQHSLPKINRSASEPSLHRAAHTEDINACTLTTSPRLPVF
Chain of CYP2C9 (P11712 whole entry): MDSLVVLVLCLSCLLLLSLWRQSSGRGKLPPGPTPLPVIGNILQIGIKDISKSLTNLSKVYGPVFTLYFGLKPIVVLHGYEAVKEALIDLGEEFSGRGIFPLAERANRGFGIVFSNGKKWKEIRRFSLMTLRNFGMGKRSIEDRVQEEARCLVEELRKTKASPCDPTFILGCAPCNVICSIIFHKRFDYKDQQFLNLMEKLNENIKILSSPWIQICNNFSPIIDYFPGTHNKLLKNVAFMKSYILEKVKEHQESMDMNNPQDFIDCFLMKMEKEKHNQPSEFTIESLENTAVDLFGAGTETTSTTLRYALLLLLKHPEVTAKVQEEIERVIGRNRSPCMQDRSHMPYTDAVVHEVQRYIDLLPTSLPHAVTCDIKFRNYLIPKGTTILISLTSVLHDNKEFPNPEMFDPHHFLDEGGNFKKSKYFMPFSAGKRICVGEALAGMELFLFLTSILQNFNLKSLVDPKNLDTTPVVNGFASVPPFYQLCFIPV
Chain of B-Raf V600E (P15056 whole entry V600E): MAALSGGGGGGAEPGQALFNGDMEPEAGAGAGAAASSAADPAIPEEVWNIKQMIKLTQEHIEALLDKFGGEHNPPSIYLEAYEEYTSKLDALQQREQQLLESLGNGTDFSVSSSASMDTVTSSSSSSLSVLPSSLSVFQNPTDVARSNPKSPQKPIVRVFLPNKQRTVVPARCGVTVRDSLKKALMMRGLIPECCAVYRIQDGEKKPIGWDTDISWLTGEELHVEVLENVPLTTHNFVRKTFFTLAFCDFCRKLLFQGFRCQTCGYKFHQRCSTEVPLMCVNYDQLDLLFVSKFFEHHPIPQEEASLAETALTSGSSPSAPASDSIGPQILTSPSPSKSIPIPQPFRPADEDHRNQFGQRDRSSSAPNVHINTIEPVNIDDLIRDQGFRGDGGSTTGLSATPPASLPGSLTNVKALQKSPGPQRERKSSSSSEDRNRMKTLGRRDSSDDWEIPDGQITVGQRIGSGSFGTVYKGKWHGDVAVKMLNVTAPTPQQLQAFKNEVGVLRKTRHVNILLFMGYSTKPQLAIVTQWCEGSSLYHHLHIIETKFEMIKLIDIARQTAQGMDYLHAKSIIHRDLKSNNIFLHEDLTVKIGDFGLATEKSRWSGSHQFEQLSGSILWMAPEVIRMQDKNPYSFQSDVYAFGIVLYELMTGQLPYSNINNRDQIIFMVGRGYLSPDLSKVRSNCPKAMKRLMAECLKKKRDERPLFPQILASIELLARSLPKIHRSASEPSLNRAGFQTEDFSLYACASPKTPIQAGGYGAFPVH
Chain of B-Raf (Homo sapiens (Human), UniProt P15056) (P15056 whole entry): as the sequence (P15056 whole entry V600E) above, with E600V counted along it
Chain of CYP3A4(BFC) (P08684 whole entry): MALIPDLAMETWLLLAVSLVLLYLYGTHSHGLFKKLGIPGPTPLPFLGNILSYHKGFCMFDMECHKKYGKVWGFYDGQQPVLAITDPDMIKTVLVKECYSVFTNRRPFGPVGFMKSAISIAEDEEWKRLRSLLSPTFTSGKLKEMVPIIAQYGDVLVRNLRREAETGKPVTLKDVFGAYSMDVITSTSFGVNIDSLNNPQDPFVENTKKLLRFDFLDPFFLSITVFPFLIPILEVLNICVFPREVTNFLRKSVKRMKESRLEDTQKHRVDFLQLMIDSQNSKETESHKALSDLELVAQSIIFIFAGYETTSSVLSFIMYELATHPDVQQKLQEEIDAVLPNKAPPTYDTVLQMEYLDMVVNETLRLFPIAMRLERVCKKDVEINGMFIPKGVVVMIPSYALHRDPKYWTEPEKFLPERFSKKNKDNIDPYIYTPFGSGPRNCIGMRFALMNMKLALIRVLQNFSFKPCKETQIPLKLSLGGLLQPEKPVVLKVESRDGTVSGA
Chain of CYP3A4(BQ) (P08684 whole entry): as above
Chain of CYP2C19 (P33261 whole entry): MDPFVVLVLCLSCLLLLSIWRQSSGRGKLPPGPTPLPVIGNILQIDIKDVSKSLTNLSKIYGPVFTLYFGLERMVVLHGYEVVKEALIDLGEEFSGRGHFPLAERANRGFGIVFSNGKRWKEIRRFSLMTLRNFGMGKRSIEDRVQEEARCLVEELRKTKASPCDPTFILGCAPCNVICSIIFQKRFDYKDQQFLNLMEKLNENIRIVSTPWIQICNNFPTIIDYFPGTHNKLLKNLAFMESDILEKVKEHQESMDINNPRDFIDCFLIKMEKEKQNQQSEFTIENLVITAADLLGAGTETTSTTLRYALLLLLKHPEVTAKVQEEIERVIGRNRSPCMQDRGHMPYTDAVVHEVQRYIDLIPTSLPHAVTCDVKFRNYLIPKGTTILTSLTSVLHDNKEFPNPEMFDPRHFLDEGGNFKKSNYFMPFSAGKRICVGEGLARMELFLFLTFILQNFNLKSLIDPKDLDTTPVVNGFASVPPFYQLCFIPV

Compound | pIC50 (CYP3A4(BFC); [4]) | IC50 (B-Raf [1]) | Biochemical activity ratio B/V600E (B-Raf [2]) | Biochemical activity ratio B/C (B-Raf [2]) | pIC50 (CYP2C9) | pIC50 (CYP1A2; human, 15 min) | pIC50 (CYP2D6) | pIC50 (CYP2C19) | turbidity threshold (L, M, H) 1.4 [3] | turbidity threshold (L, M, H) 4.5 [3] | turbidity threshold (L, M, H) 6.8 [3] | turbidity threshold (L, M, H) 7.4 [3] | IC50 (c-Raf-1) | pIC50 (CYP3A4(BQ)) | IC50 (B-Raf V600E) | Biochemical activity ratio V600E/C (B-Raf V600E) | pIC50 (CYP1A2; [5]) | pIC50 (CYP2C19; [6]) | pIC50 (CYP3A4(BFC))
O=C(c1c(F)ccc(NS(=O)(=O)c2ccc(C(F)(F)F)cc2)c1F)c1c[nH]c2ncnc(NC3CC3)c12 [P-1011, N-[3-(4-Cyclopropylamino-7H-pyrrolo[2,3-d]pyrimidine-5-carbonyl)-2,4-difluoro-phenyl]-4-trifluoromethyl-benzenesulfonamide] | > 5.30 | < 0.1 µM | 0.1-10 | >10 | < 5.00 | < 5.00 | < 5.00 | 5.00 to 5.30 | M (moderate solubility if the threshold concentration is 31.3 μM to 250 μM) | L (low solubility if the threshold concentration is <31.3 μM) | L (low solubility if the threshold concentration is <31.3 μM) | L (low solubility if the threshold concentration is <31.3 μM) | < 0.1 µM | < 5.00 | > 0.1 µM | >10 |  |  | 
O=C(c1c(F)ccc(NS(=O)(=O)c2ccc(C(F)(F)F)cc2)c1F)c1c[nH]c2ncnc(O)c12 [P-1012, N-[2,4-Difluoro-3-(4-hydroxy-7H-pyrrolo[2,3-d]pyrimidine-5-carbonyl)-phenyl]-4-trifluoromethyl-benzenesulfonamide] | < 5.00 | > 0.1 µM | 0.1-10 | 0.1-10 | < 5.00 |  | < 5.00 |  | M (moderate solubility if the threshold concentration is 31.3 μM to 250 μM) | M (moderate solubility if the threshold concentration is 31.3 μM to 250 μM) | H (high solubility if the threshold concentration is >250 μm) | H (high solubility if the threshold concentration is >250 μm) | < 0.1 µM | < 5.00 | > 0.1 µM | >10 | < 5.00 | < 5.00 | 
O=C(c1c(F)ccc(NS(=O)(=O)c2ccc(C(F)(F)F)cc2)c1F)c1c[nH]c2ncnc(NC3CCOCC3)c12 [P-1013, N-{2,4-Difluoro-3-[4-(tetrahydro-pyran-4-ylamino)-7H-pyrrolo[2,3-d]pyrimidine-5-carbonyl]-phenyl}-4-trifluoromethyl-benzenesulfonamide] | < 5.00 | < 0.1 µM | 0.1-10 | >10 | < 5.00 |  | < 5.00 |  | L (low solubility if the threshold concentration is <31.3 μM) | L (low solubility if the threshold concentration is <31.3 μM) | L (low solubility if the threshold concentration is <31.3 μM) | M (moderate solubility if the threshold concentration is 31.3 μM to 250 μM) | < 0.1 µM | < 5.00 | > 0.1 µM | >10 | < 5.00 | < 5.00 | 
CCCc1ccc(S(=O)(=O)Nc2ccc(F)c(C(=O)c3c[nH]c4ncnc(NC5CC5)c34)c2F)cc1 [P-1040, N-[3-(4-cyclopropylamino-7H-pyrrolo[2,3-d]pyrimidine-5-carbonyl)-2,4-difluoro-phenyl]-4-propyl-benzenesulfonamide] |  | < 0.1 µM | 0.1-10 | 0.1-10 | < 5.00 | < 5.00 | < 5.00 |  | M (moderate solubility if the threshold concentration is 31.3 μM to 250 μM) | L (low solubility if the threshold concentration is <31.3 μM) | L (low solubility if the threshold concentration is <31.3 μM) | L (low solubility if the threshold concentration is <31.3 μM) | < 0.1 µM | < 5.00 | > 0.1 µM | >10 |  | < 5.00 | 5.00 to 5.30
CCc1ccc(S(=O)(=O)Nc2ccc(F)c(C(=O)c3c[nH]c4ncnc(NC(C)C)c34)c2F)cc1 [P-1042, N-[2,4-Difluoro-3-(4-isopropylamino-7H-pyrrolo[2,3-d]pyrimidine-5-carbonyl)-phenyl]-4-ethyl-benzenesulfonamide] | < 5.00 | < 0.1 µM | 0.1-10 | 0.1-10 | < 5.00 | < 5.00 | < 5.00 | 5.00 to 5.30 | M (moderate solubility if the threshold concentration is 31.3 μM to 250 μM) | L (low solubility if the threshold concentration is <31.3 μM) | L (low solubility if the threshold concentration is <31.3 μM) | L (low solubility if the threshold concentration is <31.3 μM) | < 0.1 µM | < 5.00 | < 0.1 µM | >10 |  |  | 
O=C(c1c(F)ccc(NS(=O)(=O)c2ccc(C(F)(F)F)cc2)c1F)c1c[nH]c2ncnc(NCCO)c12 [P-1043, N-{2,4-Difluoro-3-[4-(2-hydroxy-ethylamino)-7H-pyrrolo[2,3-d]pyrimidine-5-carbonyl]-phenyl}-4-trifluoromethyl-benzenesulfonamide] | < 5.00 | < 0.1 µM | 0.1-10 | >10 | < 5.00 | < 5.00 | < 5.00 |  | H (high solubility if the threshold concentration is >250 μm) | M (moderate solubility if the threshold concentration is 31.3 μM to 250 μM) | M (moderate solubility if the threshold concentration is 31.3 μM to 250 μM) | M (moderate solubility if the threshold concentration is 31.3 μM to 250 μM) | < 0.1 µM | < 5.00 | > 0.1 µM | >10 |  | < 5.00 | 
